Consider 19 compounds from ChEMBL document CHEMBL1134362, “New 3'-azido-3'-deoxythymidin-5'-yl O-(omega-hydroxyalkyl) carbonate prodrugs: synthesis and anti-HIV evaluation” (J Med Chem, 2001).

One series concerns MT4. Put plainly: Cytotoxicity against MT-4 (human leukemia) cells. The format is functional.
The next series is filed under the species Homo sapiens. Put plainly: Time required for 50%hydrolysis of prodrug to AZT in normal human serum was determined. The format is ADME, organism-based.
Series [1] in a line: Partition coefficient (logP). The format is physicochemical. The note with it: octanol/water.
For series [2], the system named is Human immunodeficiency virus 1. Put plainly: Inhibition of HIV-1 (BRU) cytopathicity in MT-4 (human leukemia). The series is classed as functional, organism-based. For orientation: Protection from cytopathic effect is a common read-out in antiviral testing.
A short description of series [3]: Selectivity index (CC50/EC50). The format is functional.
A short description of series [4]: (§1) Cytotoxicity against human peripheral blood mononuclear cells. The series is classed as functional.
Series [5] concerns Human immunodeficiency virus 1. The series can be described thus: Inhibition of HIV-1 (BaL) cytopathicity in human peripheral blood mononuclear cells. The series is classed as functional, organism-based.
Series [6] concerns Human immunodeficiency virus 1. Put plainly: Inhibition of HIV-1 (IIIB) cytopathicity in human peripheral blood mononuclear cells. The series is classed as functional, organism-based.
Series [7] in a line: as §1. The series is classed as functional. The source holds these as a separate data set.

For orientation: CC50 means the concentration giving 50% cytotoxicity. The low end stands for greater toxicity to the cells, the high end for lower toxicity to the cells. The logP is a log measure of how a compound divides between an organic and an aqueous phase. Broadly, the EC50 is the concentration at which the effect is half-maximal. Lower therefore signals higher potency in that assay. As for `Cc1cn(C2CC(N=[N+]=[N-])C(COC(=O)NCCCC(=O)O)O2)c(=O)[nH]c1=O` (stereo not given), the half-maximal cytotoxic concentration (CC50) in the series on MT4 was greater than 50000 nM. Also, in the series listed under Homo sapiens, the T1/2 is reported as greater than 2880 min. Besides, the log partition coefficient (logP) in series [1] (read-out: logP) was -0.81. Further, in [2], the EC50 is 100 nM. Also, the SI in series [3] was greater than 500.

Compound `Cc1cn(C2CC(N=[N+]=[N-])C(COC(=O)CCCN)O2)c(=O)[nH]c1=O` (stereo not given) showed a CC50 in the series on MT4 greater than 50000 nM. Moreover, the T1/2 in the series listed under Homo sapiens came out at 26 min. Besides, the lipophilicity (logP) in series [1] (read-out: logP) is -0.9. In series [2], this compound came in with a concentration for a half-maximal effect (EC50) of 20 nM. The compound also displayed an SI in [3] greater than 2500.

Consider `Cc1cn(C2CC(N=[N+]=[N-])C(COC(=O)CCCC(=O)OC(C)(C)C)O2)c(=O)[nH]c1=O` (stereo not given), for which the CC50 in the series with MT4 is greater than 50000 nM. The T1/2 in the series filed under Homo sapiens was 33 min. In addition, in series [1] (read-out: logP), the logP came out at 1.17. In addition, the EC50 in series [2] was determined as 5 nM. Moreover, the SI in series [3] was greater than 10000.

For `Cc1cn(C2CC(N=[N+]=[N-])C(COC(=O)OCCCC(=O)OC(C)(C)C)O2)c(=O)[nH]c1=O` (stereo not given), the CC50 in the series on MT4 was greater than 50000 nM. Moreover, the T1/2 in the series listed under Homo sapiens was 16 min. Also, in [1] (read-out: logP), the lipophilicity (logP) amounted to 1.14. The response in series [2] was half-maximal at 5 nM (EC50). In [3], this compound displayed an SI greater than 10000.

With `Cc1cn(C2CC(N=[N+]=[N-])C(COC(=O)OCCCN)O2)c(=O)[nH]c1=O` (stereo not given), in the series with MT4, the CC50 is greater than 50000 nM. Besides, the T1/2 in the series filed under Homo sapiens is on record as 8 min. Also, in series [1] (read-out: logP), the logP was -0.93. The compound also showed a concentration for a half-maximal effect (EC50) in [2] of 20 nM. In [3], the SI was greater than 2500.

In the series with MT4, `Cc1cn(C2CC(N=[N+]=[N-])C(COC(=O)NCCCO)O2)c(=O)[nH]c1=O` (stereo not given) yielded a CC50 greater than 50000 nM. Further, the T1/2 in the series listed under Homo sapiens was greater than 2880 min. Moreover, in series [1] (read-out: logP), the logP was -1.24. The compound also showed a concentration giving a half-maximal response (EC50) in [2] of 100 nM. This compound also had an SI in series [3] greater than 500.

For the compound `CCCCOC(=O)OCC1OC(n2cc(C)c(=O)[nH]c2=O)CC1N=[N+]=[N-]` (stereo not given), the CC50 in the series with MT4 is greater than 50000 nM. For the same compound, in the series filed under Homo sapiens, the T1/2 is on record as 9 min. Also, in series [1] (read-out: logP), the log partition coefficient (logP) came to 1.02. This compound displayed an EC50 in series [2] of 8 nM. In series [3], this compound showed an SI greater than 6250.

`Cc1cn(C2CC(N=[N+]=[N-])C(COC(=O)CCCC(=O)O)O2)c(=O)[nH]c1=O` (stereo not given) registered a CC50 in the series with MT4 greater than 50000 nM. Further, the T1/2 in the series filed under Homo sapiens came out at 1800 min. Besides, the logP in series [1] is -0.52. In addition, in [2], the response was half-maximal at 7 nM (EC50). In [3], this compound returned an SI greater than 7140.

In the case of `Cc1cn(C2CC(N=[N+]=[N-])C(COC(=O)OCCCCO)O2)c(=O)[nH]c1=O` (stereo not given), the figures for the cytotoxic concentration (CC50) (in [4]; in the series with MT4; in series [7]) were 24000 nM, greater than 50000 nM and 29000 nM, respectively. Further, the half-maximal effective concentration (EC50) in series [5] amounted to 0.78 nM; in [6], 0.78 nM; in [2] it was 0.5 nM. In addition, the T1/2 in the series filed under Homo sapiens is 30 min. This compound registered a logP in series [1] of -0.68.

In the series on MT4, `Cc1cn(C2CC(N=[N+]=[N-])C(COC(=O)OCCO)O2)c(=O)[nH]c1=O` (stereo not given) gave a CC50 greater than 50000 nM. The T1/2 in the series listed under Homo sapiens was less than 1 min. In [1], this compound displayed a log partition coefficient (logP) of -1.2. The EC50 in [2] is 10 nM. The compound also registered an SI in series [3] greater than 5000.

In the series on MT4, `Cc1cn(C2CC(N=[N+]=[N-])C(COC(=O)OCCCCCO)O2)c(=O)[nH]c1=O` (stereo not given) registered a cytotoxic concentration (CC50) greater than 50000 nM. The T1/2 in the series listed under Homo sapiens is reported as 16 min. The logP in series [1] (read-out: logP) is -0.45. It took 10 nM to reach a half-maximal effect in [2] (EC50). The compound further showed an SI in [3] greater than 5000.

Turning to `Cc1cn([C@H]2C[C@H](N=[N+]=[N-])[C@@H](CO)O2)c(=O)[nH]c1=O` [ZIDOVUDINE], the CC50 in series [4] was 11000 nM; with MT4, greater than 100000 nM; in [7] it was 8000 nM. For the same compound, the results for the EC50 in [5], in [6] and in series [2] were 11 nM, 7.5 nM and 25 nM, respectively.

With `Cc1cn(C2CC(N=[N+]=[N-])C(COC(=O)CCCO)O2)c(=O)[nH]c1=O` (stereo not given), in series [1] (read-out: logP), the logP was -0.95.

Compound `Cc1cn(C2CC(N=[N+]=[N-])C(COC(=O)OCCCCCCO)O2)c(=O)[nH]c1=O` (stereo not given) registered a CC50 with MT4 greater than 50000 nM. The T1/2 in the series filed under Homo sapiens is 7 min. In addition, in series [1] (read-out: logP), the log partition coefficient (logP) turned out to be 0.08. Besides, in series [2], the EC50 came to 10 nM. In addition, the SI in [3] was greater than 5000.

As for `Cc1cn(C2CC(N=[N+]=[N-])C(COC(=O)NCCCN)O2)c(=O)[nH]c1=O` (stereo not given), the 50% cytotoxic concentration (CC50) in the series with MT4 is greater than 50000 nM. The T1/2 in the series filed under Homo sapiens is recorded as greater than 2880 min. Also, the lipophilicity (logP) in series [1] (read-out: logP) was -1.19. Besides, in series [2], the response was half-maximal at 10 nM (EC50). In addition, the SI in [3] is greater than 5000.

In the series on MT4, `Cc1cn(C2CC(N=[N+]=[N-])C(COC(=O)OCCCCCCCCO)O2)c(=O)[nH]c1=O` (stereo not given) returned a CC50 greater than 50000 nM. The T1/2 in the series filed under Homo sapiens stood at 2 min. Further, in [1] (read-out: logP), the logP was found to be 1.14. The compound also had a concentration giving a half-maximal response (EC50) in [2] of 2.5 nM. Moreover, the SI in [3] was greater than 20000.

Take `Cc1cn(C2CC(N=[N+]=[N-])C(COC(=O)OCCCC(=O)O)O2)c(=O)[nH]c1=O` (stereo not given): the half-maximal cytotoxic concentration (CC50) in the series with MT4 was greater than 50000 nM. For the same compound, in the series filed under Homo sapiens, the T1/2 worked out at 780 min. The logP in series [1] (read-out: logP) is -0.55. Besides, in series [2], the EC50 worked out at 5 nM. The compound also gave an SI in [3] greater than 10000.

On to `Cc1cn(C2CC(N=[N+]=[N-])C(COC(=O)NCCCC(=O)OC(C)(C)C)O2)c(=O)[nH]c1=O` (stereo not given), for which the CC50 in the series with MT4 is greater than 50000 nM. Further, in the series listed under Homo sapiens, the T1/2 is on record as greater than 2880 min. In series [1] (read-out: logP), the logP was 0.88. Moreover, the half-maximal effective concentration (EC50) in series [2] turned out to be 10 nM. In series [3], this compound came in with an SI greater than 5000.

For the compound `Cc1cn(C2CC(N=[N+]=[N-])C(COC(=O)OCCCO)O2)c(=O)[nH]c1=O` (stereo not given), the CC50 with MT4 was greater than 50000 nM. Moreover, the T1/2 in the series filed under Homo sapiens was found to be 10 min. In addition, the log partition coefficient (logP) in [1] was -0.98. For the same compound, the EC50 in series [2] stood at 10 nM. For the same compound, the SI in [3] is greater than 5000.
